From article PMC3172881 (Cancer cell, 2011)
Values belong to the compound of their own block, whether it stands above or below them.

Legend:
[1] = tested on: mEP^Ephb2 cells; assay: HTS activity against ependymoma cells; format: cell-based, mouse; details: result in words
[2] = tested on: mEP^Ephb2, mBT^NICD1, NSC^wt and NSC^null cells; format: cell-based, mouse; details: for cell-selective activity class in HTS: class from average EC50 in each of four cell types, secondary screen
[3] = tested on: IGF1R; assay: Western blot of IGF1R signalling in mEP^Ephb2 cells stimulated with IGF2; format: cell-based, mouse
[4] = Tolerability of 5-FU infusion via Alzet pumps; format: in vivo, mouse; details: 13 mg/kg/hour via Alzet pumps; unacceptably toxic
[5] = tested on: subventricular zone (SVZ) of Prom1^+/C-L mice; assay: In vivo NSC toxicity: ApoTag, DCX and LacZ; details: for number of Prom1^+ cells in the SVZ / number of apoptotic cells in the SVZ: ±SEM; for number of apoptotic cells in the SVZ: ApoTag
[6] = 5-FU pharmacokinetics, tumor microdialysis and plasma; format: in vivo, mouse
[7] = tested on: mEP^Ephb2-LUC brain tumors; assay: Orthotopic allograft efficacy study, bioluminescence and survival; format: in vivo, mouse; details: for survival of mice harbouring mEP^Ephb2-LUC tumors / rate of mEP^Ephb2-LUC tumor growth: 5-FU 75 mg/kg i.v. once weekly, bortezomib 0.8 mg/kg i.v. twice weekly; for rate of mEP^Ephb2-LUC tumor growth: bioluminescence

Compound: N.N.O=C([O-])C1(C(=O)[O-])CCC1.[Pt+2] [carboplatin]
activity against mEP^Ephb2 cells in HTS [1]: Neither carboplatin nor irinotecan were active

Compound: CCc1c2c(nc3ccc(OC(=O)N4CCC(N5CCCCC5)CC4)cc13)-c1cc3c(c(=O)n1C2)COC(=O)[C@]3(O)CC [irinotecan]
activity against mEP^Ephb2 cells in HTS [1]: Neither carboplatin nor irinotecan were active

EC50 ([2]; Mus musculus, 96 h): 200 to 700 nM
Compound: CC[C@@]1(O)C(=O)OCc2c1cc1n(c2=O)Cc2cc3c(CN(C)C)c(O)ccc3nc2-1 [topotecan]
cell-selective activity class in HTS [2]: equipotent

Compound: CS(=O)(=O)CCNCc1ccc(-c2ccc3ncnc(Nc4ccc(OCc5cccc(F)c5)c(Cl)c4)c3c2)o1 [lapatinib]
activity against mEP^Ephb2 cells in HTS [1]: inactive

Compound: COc1cc2c(cc1Nc1nc(Nc3ccsc3C(N)=O)c3cc[nH]c3n1)N(C(=O)CN(C)C)CCC2 [GSK2110236A]
IGF1R and its downstream signal [3]: blocked
activity against mEP^Ephb2 cells in HTS [1]: potent inhibitor

Compound: C/C=C(\C)C(=O)O[C@H]1[C@H](OC(C)=O)[C@@]2(CO)C(CC1(C)C)C1=CC[C@@H]3[C@@]4(C)CC[C@H](O[C@@H]5O[C@H](C(=O)O)[C@@H](O[C@@H]6O[C@H](CO)[C@@H](O)[C@H](O)[C@H]6O)[C@H](O)[C@H]5O[C@@H]5O[C@H](CO)[C@@H](O)[C@H](O)[C@H]5O)[C@H](CO)C4CC[C@@]3(C)[C@@]1(C)C[C@H]2O (stereo partly drawn) [beta-escin]
cell-selective activity class in HTS [2]: ependymoma selective

Compound: O=c1[nH]cc(F)c(=O)[nH]1 [5-FU, 5-fluorouracil]
weight loss [4]: ≥ 20%
DCX^+ labelling in the SVZ ([5]; four weeks of therapy): returned to control levels
apoptotic labelling in the SVZ ([5]; four weeks of therapy): returned to control levels
area of DCX^+ neuroblast rests in the SVZ ([5]; two weeks of therapy): 2.2 μm^2 per μm ventricular surfac
number of Prom1^+ cells in the SVZ ([5]; two weeks of therapy): 35.1%
number of apoptotic cells in the SVZ ([5]; two weeks of therapy): 12.0±1.7
time the tumor concentration was maintained ([6]; 13 mg/kg/hour via Alzet pumps, ~10 μM): over 24 hours
time brain tumor concentration remained above 10μM ([6]; intravenous bolus 75 mg/kg): approximately 1 hour
peak concentration in brain tumors ([6]; intravenous bolus 75 mg/kg, microdialysis, ±79 S.D.): 800 µM
tumor drug levels ([6]; subcutaneous infusion 1.03 mg/kg/hour): failed to generate detectable tumor drug levels
survival of mice harbouring mEP^Ephb2-LUC tumors [7]: significantly prolonged
rate of mEP^Ephb2-LUC tumor growth [7]: halved
activity against mEP^Ephb2-LUC brain tumors ([7]; delivered subcutaneously via Alzet pumps): inactive

Compound: CC(C)C[C@H](NC(=O)[C@H](Cc1ccccc1)NC(=O)c1cnccn1)B(O)O [bortezomib]
DCX^+ labelling in the SVZ ([5]; four weeks of therapy): returned to control levels
Prom1^+ cell numbers in the SVZ relative to controls ([5]; four weeks of therapy): > 2.5 times
apoptotic labelling in the SVZ ([5]; four weeks of therapy): returned to control levels
number of Prom1^+ cells in the SVZ ([5]; four weeks of therapy): 57.8%
area of DCX^+ neuroblast rests in the SVZ ([5]; two weeks of therapy): 6.0 μm^2 per μm ventricular surfac
number of Prom1^+ cells in the SVZ ([5]; two weeks of therapy): 39.2%
number of apoptotic cells in the SVZ ([5]; two weeks of therapy): 22.2±5.1
activity against mEP^Ephb2 cells in HTS [1]: highly potent
survival of mice harbouring mEP^Ephb2-LUC tumors [7]: significantly prolonged
rate of mEP^Ephb2-LUC tumor growth [7]: halved
